This is an account of results in patent US20110046227A1, “METHODS FOR CONCOMITANT ADMINISTRATION OF […] A SECOND ACTIVE AGENT” (MUTUAL PHARMACEUTICAL COMPANY, INC., priority 2009, published 2011).

As a reminder, the Tmax is the time at which the peak concentration occurs. The Cmax is the peak of the concentration-time curve.

The nature of the data set: Pharmacokinetic study in healthy adults of single vs. multiple oral doses of colchicine tablets (Example 1).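 On all read-outs here: Single-dose and multiple-dose periods given to the same subjects, with a 14-day washout between the two periods.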 In kind it is in vivo, human. As to conditions: for Vd/F / half-life / Tmax / AUC(0-inf) / AUC(0-t) / AUC / Cmax: human, plasma, 0.6 mg; for Vd/F: Vd = CL/Ke, calculated from mean values, read-out: Vd/F, Mean (% CV).
The mark [1] stands for this setting: multiple (b.i.d.) oral doses colchicine 0.6 mg for 10 days, Day 25, healthy adults N=13, plasma, median.

Read-outs that look alike come from different tables or passages of the source.

Protocol: Subjects received a light breakfast served 60 minutes following dose administration in the morning and the evening dose was administered 90 minutes after an evening meal on Days 15 through 24 only. […] Study periods were separated by a 14-day washout. Following the single dose and the last dose of the multiple dose regimen (beginning on the mornings of Day 1 and Day 25, respectively), blood samples were collected (6 mL each) from each subject within 1 hour prior to dosing and after dose administration at study hours 0.5, 1, 1.5, 2, 3, 4, 6, 8, 10, 12, and 24 (while confined) and 36, 48, 72, and 96 (on an outpatient basis).
All subjects completed both dosing periods according to protocol.
In tables, the parameter CL/F denotes the apparent total body clearance after administration, calculated as Total Dose/Total AUC0-tau; and Vd/F denotes the apparent total volume of distribution after administration, calculated as Total Dose/(Total AUC∞×Kel).
Pharmacokinetic parameters referred to herein describe the in vivo characteristics of drug (or a metabolite or a surrogate marker for the drug) over time. These include plasma concentration (C), as well as Cmax, Cn, C24, Tmax, and AUC. “Cmax” is the measured plasma concentration of the active agent at the point of maximum, or peak, concentration. “Cmin” is the measured plasma concentration of the active agent at the point of minimum concentration. “Cn” is the measured plasma concentration of the active agent at about n hours after administration. […] The term “Tmax” refers to the time from drug administration until Cmax is reached. “AUC” is the area under the curve of a graph of the measured plasma concentration of an active agent vs. time, measured from one time point to another time point. […] Time t can be the last time point with measurable plasma concentration for an individual formulation. The AUC0-∞, AUC∞ or AUC0-inf is the calculated area under the curve of plasma concentration versus time from time 0 to time infinity.

Consider `COc1cc2c(c(OC)c1O)-c1ccc(OC)c(=O)cc1[C@@H](NC(C)=O)CC2` [2-O-demethylcolchicine], for which the metabolite plasma concentration (after colchicine 0.6 mg single and multiple doses, LOQ 0.2 ng/mL, 13 subjects) is on record as below 0.2 ng/mL.

As for `COc1cc2c(c(OC)c1OC)-c1ccc(OC)c(=O)cc1[C@@H](NC(C)=O)CC2` [Colchicine, (−)-N-[(7S,12aS)-1,2,3,10-tetramethoxy-9-oxo-5,6,7,9-tetrahydrobenzo[a]heptalen-7-yl]-acetamide], where the note is “0.6 mg b.i.d., most subjects”, the “attainment of steady state (trough plasma concentrations)” value was “by approximately the eighth day of dosing”. Also, for the setting “calculated following a single oral dose, stated not to be an accurate estimate”, the elimination half-life result is given as “approximately 5 hours”. The secondary colchicine peak result (following a single dose or upon multiple dosing, individual subject data) was “no subject experienced a secondary colchicine peak”. For the setting “healthy adults, oral, single dose”, the “apparent volume of distribution” value is listed as 540 L. In addition, the Vd/F is, setting by setting: (oral, colchicine 0.6 mg b.i.d. × 10 days, Day 25) 1150 L; (oral, colchicine 0.6-mg single dose, Day 1, N=13) 341 L. Moreover, the half-life (oral, repeated dosing 0.6 mg b.i.d., read-out: terminal elimination half life (converted)) was 26.6 h; the half-life (po, multiple (b.i.d.) oral doses colchicine 0.6 mg for 10 days, Day 25, healthy adults N=13, mean, read-out: T1/2, MEAN (converted)) is 26.6 h; the half-life (po, multiple (b.i.d.) oral doses colchicine 0.6 mg for 10 days, Day 25, healthy adults N=13, median, read-out: T1/2, MEDIAN (converted)) is 26.5 h; the half-life (po, single oral dose colchicine 0.6 mg, healthy adults N=13, mean, read-out: T1/2, MEAN (converted)) is 4.95 h; the half-life (po, single oral dose colchicine 0.6 mg, healthy adults N=13, median, read-out: T1/2, MEDIAN (converted)) is 3.48 h. For the same compound, the Tmax came out at 1.31 h (po, multiple (b.i.d.) oral doses colchicine 0.6 mg for 10 days, Day 25, healthy adults N=13, mean, read-out: Tmax, MEAN); 1 h (po, multiple (b.i.d.) oral doses colchicine 0.6 mg for 10 days, Day 25, healthy adults N=13, median, read-out: Tmax, MEDIAN); 1.5 h (po, single oral dose colchicine 0.6 mg, healthy adults N=13, median, read-out: Tmax, MEDIAN). For the same compound, the AUC(0-inf) by setting is: (po, multiple (b.i.d.) oral doses colchicine 0.6 mg for 10 days, Day 25, healthy adults N=13, plasma, mean, read-out: AUC0-inf, MEAN) 54.2 ng·h/mL; (po, multiple (b.i.d.) oral doses colchicine 0.6 mg for 10 days, Day 25, healthy adults N=13, plasma, median, read-out: AUC0-inf, MEDIAN) 54.1 ng·h/mL; (po, single oral dose colchicine 0.6 mg, healthy adults N=13, plasma, mean, read-out: AUC0-inf, MEAN) 12.3 ng·h/mL; (po, single oral dose colchicine 0.6 mg, healthy adults N=13, plasma, median, read-out: AUC0-inf, MEDIAN) 11.5 ng·h/mL. The AUC(0-t) was 43.6 ng·h/mL (po, multiple (b.i.d.) oral doses colchicine 0.6 mg for 10 days, Day 25, healthy adults N=13, plasma, mean, read-out: AUC0-t, MEAN); 41.9 ng·h/mL (po, multiple (b.i.d.) oral doses colchicine 0.6 mg for 10 days, Day 25, healthy adults N=13, plasma, median, read-out: AUC0-t, MEDIAN); 10.5 ng·h/mL (po, single oral dose colchicine 0.6 mg, healthy adults N=13, plasma, mean, read-out: AUC0-t, MEAN); 10.6 ng·h/mL (po, single oral dose colchicine 0.6 mg, healthy adults N=13, plasma, median, read-out: AUC0-t, MEDIAN). The AUC is, setting by setting: (po, multiple (b.i.d.) oral doses colchicine 0.6 mg for 10 days, Day 25, healthy adults N=13, plasma, mean, read-out: AUC0-τ, MEAN) 20.4 ng·h/mL; (po, multiple (b.i.d.) oral doses colchicine 0.6 mg for 10 days, Day 25, healthy adults N=13, plasma, median, read-out: AUC0-τ, MEDIAN) 20.4 ng·h/mL. The Cmax amounted to 3.55 ng/mL (po, multiple (b.i.d.) oral doses colchicine 0.6 mg for 10 days, Day 25, healthy adults N=13, plasma, mean, read-out: Cmax, MEAN); 3.73 ng/mL (po, multiple (b.i.d.) oral doses colchicine 0.6 mg for 10 days, Day 25, healthy adults N=13, plasma, median, read-out: Cmax, MEDIAN); 2.45 ng/mL (po, single oral dose colchicine 0.6 mg, healthy adults N=13, plasma, mean, read-out: Cmax, MEAN); 2.48 ng/mL (po, single oral dose colchicine 0.6 mg, healthy adults N=13, plasma, median, read-out: Cmax, MEDIAN). Besides, the “Kel, MEAN” value by setting is: (multiple (b.i.d.) oral doses colchicine 0.6 mg for 10 days, Day 25, healthy adults N=13, mean) 0.0267 h⁻¹; (single oral dose colchicine 0.6 mg, healthy adults N=13, mean) 0.1829 h⁻¹. Moreover, the “Kel, MEDIAN” value stood at 0.0261 h⁻¹ (multiple (b.i.d.) oral doses colchicine 0.6 mg for 10 days, Day 25, healthy adults N=13, median) and 0.1992 h⁻¹ (single oral dose colchicine 0.6 mg, healthy adults N=13, median). The “Cave, MEAN” value (multiple (b.i.d.) oral doses colchicine 0.6 mg for 10 days, Day 25, healthy adults N=13, plasma, mean) was 1.69722 ng/mL. In addition, the “Cave, MEDIAN” value under setting [1] turned out to be 1.70192 ng/mL. Under setting [1], the “Cmin, MEDIAN” value amounted to 0.9035 ng/mL. The “mean Cmin concentration” value (observed on Day 25, 0.6 mg b.i.d. steady state regimen) was found to be 0.907 ng/mL. Besides, the “plasma concentrations quantifiable after a single dose” value (single dose 0.6 mg, 24 hours post-dose) is on record as “no longer quantifiable 24 hours post-dose in all but 1 subject”. Moreover, the “Cmin prior to the morning dose higher than Cmin prior to the evening dose” value (steady state, Day 23 and Day 24) is “approximately 12%”.
